Results on 1 compound are retold here after patent US20110306671A1, “AMIDE DERIVATIVES OF ETHACRYNIC ACID” (The Regents of the The University of California, priority 2008, published 2011).

In one test the test system is Wnt signaling. The test is described as follows: CellSensor LEF/TCF-bla SW480 cell-based assay (Wnt signaling inhibition). On the set-up: species or system human. The following applies: Homo sapiens; LEF/TCF-bla SW480 cells, 20 hours. Here is the method: To determine the specificity of compounds on Wnt/[…]-catenin pathway inhibition, CellSensor LEF/TCF-bla SW480 cell-based assay (Invitrogen, Carlsbad, Calif.) was used according to the supplier's instructions, but modified for a 96 well format. Cells were plated at 25,000 cells/well in assay medium in 96-well black plates with clear bottom (Corning) the day prior to compound treatment.

The test system of another test is SW480. The test is described as follows: Cytotoxicity of EA in tumor cell line SW480. The following applies: Homo sapiens, mean of at least two experiments. Type of test: cell-based.
For the next test, the system named is A549. The test is described as follows: Cytotoxicity of EA in tumor cell line A549. It counts as cell-based. The following applies: Homo sapiens, mean of at least two experiments.
In test [1] the test system is Wnt3a-induced transcription. The test is described as follows: Stable Super8XTOPflash reporter HEK293 cells stimulated with Wnt3a. It counts as cell-based, human. Here is the method:
FIG. 1. Inhibition of Wnt/β-catenin signaling by EA. […] Cells were lysed and luciferase activity was quantified. Total protein levels were determined by Bradford Assay and serve as a control for total cell number. (B) HEK293 cells were co-transfected with TOPflash reporter construct, along with expression plasmids for Wnt1, Wnt3, LRP6, Dvl and β-catenin as indicated. […] (C) HEK293 cells were transfected with FOPflash reporter with or without an expression plasmid for β-catenin. […] (D) HEK293 cells were transfected with NFAT reporter and expression plasmid for NFATc. […] The results are expressed as fold induction of luciferase activity compared to the basal level, and are the means of three experiments±SEM. The Super8XTOPflash construct (kindly provided by Dr. R. Moon) was stably transfected into HEK293 cells, and single cell clones were isolated. […] (2003) and Willert et al. (2008).

In the next test the target is T1, LEF-1/β-catenin complex (Homo sapiens, UniProt Q9UJU2).
T1 construct: endogenous in cells; host or cells: SW480 cells
T1 sequence (Q9UJU2 whole entry, one chain of several): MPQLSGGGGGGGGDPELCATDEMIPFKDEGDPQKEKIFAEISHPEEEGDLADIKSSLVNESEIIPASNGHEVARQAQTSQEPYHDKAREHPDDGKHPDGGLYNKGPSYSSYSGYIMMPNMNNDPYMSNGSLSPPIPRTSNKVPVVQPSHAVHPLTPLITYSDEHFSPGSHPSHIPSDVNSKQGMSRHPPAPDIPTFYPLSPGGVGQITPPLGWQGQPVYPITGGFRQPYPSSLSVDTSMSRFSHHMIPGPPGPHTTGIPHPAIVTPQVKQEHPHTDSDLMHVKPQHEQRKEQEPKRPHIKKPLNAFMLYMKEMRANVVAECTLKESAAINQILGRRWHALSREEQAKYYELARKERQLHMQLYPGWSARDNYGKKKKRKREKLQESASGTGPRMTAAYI
The test is described as follows: Co-immunoprecipitation of the β-catenin complex in SW480 cells. The settings on record: increasing EA, 16 hours. Type of test: cell-based. Here is the method:
FIG. 7. EA destabilizes the LEF-1/β-catenin complex. (A) SW480 cells were treated with increasing amounts of EA for 16 hours. Cells were lysed, and IP was completed with anti-β-catenin monoclonal antibody. The immune complexes were analyzed by immunoblotting with anti-LEF-1, anti-α-catenin and anti-β-catenin antibodies. (B) EA inhibits Wnt/β-catenin signaling in SW480 cells. SW480 cells were transfected with TOPflash reporter and control plasmid pCMXβgal. After transfection for 24 hours, cells were treated with increasing concentrations of EA for another 24 hours as indicated. Cells were then harvested and luciferase values were determined. The results are expressed as relative luciferase activity (%) normalized to a β-galactosidase control.
Primary CLL cells and SW480 cells were treated with the indicated amounts of EA. Cells were washed twice with PBS and resuspended in 0.5 mL lysis buffer (20 mM Tris-HCl, pH 8.0/10% glycerol/5 mM MgCl2/0.15 M KCl/0.1% Nonidet P-40 with protease inhibitors). For CLL cells, lysates of 1 to 2×10^7 cells were incubated with anti-LEF-1 antibody at a 1:1000 dilution overnight at 4° C., and then with saturating amounts of protein G plus/protein A agarose beads (Calbiochem) at 4° C. for 2 hours before centrifugation at 15,000 g for 5 minutes. […]

The target in another test is T2, LEF-1 (Homo sapiens, UniProt Q9UJU2).
T2 construct: endogenous in cells; host or cells: primary CLL cells from patients; SW480 cells
T2 sequence (Q9UJU2 whole entry): as the sequence (Q9UJU2 whole entry, one chain of several) above
The test is described as follows: Immunoprecipitation and immunoblotting with anti-EA antibody: LEF-1. It counts as binding. How it is done:
(§1) FIG. 6. EA binds to LEF-1 in primary CLL and SW480 cells. (A) lysates from CLL cells exposed to 10 μM EA for 8 hours or 24 hours were immunoprecipitated with anti-LEF-1 antibody. The immune complexes were analyzed by immunoblotting with anti-LEF-1 and anti-EA antibodies. (B) SW480 cells were treated with indicated amounts of EA for 16 hours. Cell lysates were immunoprecipitated with anti-β-catenin antibody (Santa Cruz Biotechnology, Santa Cruz, Calif.). The immune complexes were analyzed by immunoblotting with anti-EA and anti-β-catenin antibodies. (C) SW480 cells were exposed to 50 μM of EA for 16 hours and cell lysates were immunoprecipitated with anti-β-catenin antibody. The proteins in the immunoprecipitates were resolved by SDS-PAGE, transferred, and probed with indicated antibodies.
(§2) A conjugate of EA with Keyhole Limpet Hemocyanin (KLH, Sigma) was prepared by thiolation of KLH with N-succinimidyl S-acetylthioacetate (SATA), followed by allowing the SATA-KLH conjugate to form a Michael adduct with EA, as described in Hermanson (1996). Immunization of rabbits was performed by three 1 mL subcutaneous injections of approximately 0.4 mg EA-KLH conjugates. Complete Freund's adjuvant was used for the first injection. The second and third injections were performed 3 and 6 weeks after the first, using incomplete adjuvant. […]

A further test concerns the target T3, β-catenin (Homo sapiens, UniProt P35222).
T3 construct: endogenous in cells
The test is described as follows: Immunoprecipitation and immunoblotting with anti-EA antibody: β-catenin. Type of test: binding. How it is done: as §1, §2

The subject of test [2] is LEF-1, cyclin D1 and fibronectin mRNA. The test is described as follows: Real-time PCR of Wnt target genes in CLL cells. Type of test: cell-based, human. The settings on record: CLL cells from three patients, 16 hours.
A further test concerns Fzd5 mRNA. The test can be described thus: Real-time PCR of Fzd5 in CLL cells. It counts as cell-based, human. The settings on record: CLL cells from three patients, 16 hours.
For test [3], the system named is lymphoma and myeloma cells. The following applies: Schmidt et al., 2009; cited from earlier work.
The test system of the next test is Primary CLL cells. The test can be described thus: Cell viability assay (MTT) with primary CLL cells. The settings on record: 48 hours.

T3 sequence (P35222 whole entry): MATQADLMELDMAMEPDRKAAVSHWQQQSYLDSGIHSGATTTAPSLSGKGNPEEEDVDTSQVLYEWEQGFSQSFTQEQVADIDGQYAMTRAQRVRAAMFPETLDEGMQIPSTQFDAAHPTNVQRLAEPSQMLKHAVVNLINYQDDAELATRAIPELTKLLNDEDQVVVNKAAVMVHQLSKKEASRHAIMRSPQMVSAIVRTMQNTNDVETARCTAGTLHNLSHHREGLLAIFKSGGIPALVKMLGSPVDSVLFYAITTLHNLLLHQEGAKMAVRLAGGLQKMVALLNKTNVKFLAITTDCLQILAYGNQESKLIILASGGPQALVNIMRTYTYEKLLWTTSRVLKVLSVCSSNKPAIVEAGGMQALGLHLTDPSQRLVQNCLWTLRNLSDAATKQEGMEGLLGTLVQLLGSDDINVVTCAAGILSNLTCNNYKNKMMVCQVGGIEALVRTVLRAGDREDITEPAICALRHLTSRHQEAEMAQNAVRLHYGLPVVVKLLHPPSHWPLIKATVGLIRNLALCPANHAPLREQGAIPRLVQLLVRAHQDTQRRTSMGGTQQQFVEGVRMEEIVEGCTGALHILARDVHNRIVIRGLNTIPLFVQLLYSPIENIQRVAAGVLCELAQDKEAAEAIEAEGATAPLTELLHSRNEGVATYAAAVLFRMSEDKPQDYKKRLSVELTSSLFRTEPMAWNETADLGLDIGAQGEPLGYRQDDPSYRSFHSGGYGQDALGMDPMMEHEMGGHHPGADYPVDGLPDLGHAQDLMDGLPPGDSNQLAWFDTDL

As to `C=C(CC)C(=O)c1ccc(OCC(=O)O)c(Cl)c1Cl` [Compound 1, Ethacrynic acid], the IC50 in the test on Wnt signaling is 32.7 µM; in the test on SW480 it was 68 µM; in the test with A549, 178 µM; in [1] (Homo sapiens, HEK293, read-out: IC50 for inhibition of Wnt3A-induced transcription) it was ~25 µM; in the test with Primary CLL cells (read-out: IC50-EA, Primary CLL cells from nine patients, mean) it was 8.56 µM. In test [1] (Wnt3a 10 nM, EA 20-35 μM, 18 hours), the “effect on Wnt3a-induced transcription of the SuperTOPflash reporter” value is reported as “blocked Wnt3a-induced transcription in a dose-dependent manner”. The “LEF-1 levels in the β-catenin complex” value at LEF-1/β-catenin complex is recorded as “decreased LEF-1 levels in the β-catenin complex in a concentration-dependent manner”. Moreover, the “α-catenin levels in the β-catenin complex” value at LEF-1/β-catenin complex is on record as “little effect”. The “reaction of immunoprecipitated LEF-1 with anti-EA antibody” value on LEF-1 (CLL lysates, EA 10 μM, 8 hours and 24 hours) is recorded as “reacted strongly with the anti-EA antibody”. Also, at LEF-1 (SW480 cells, 50 μM EA, 16 hours, anti-β-catenin immunoprecipitate), the “staining of the LEF-1 band with anti-EA antibody” value was “stained positive with the anti-EA antibody only in the drug treated samples”. Moreover, the “binding to β-catenin” value at β-catenin (CLL extracts, data not shown) is “did not bind detectably”. Also, the “detection of precipitated β-catenin by anti-EA antibody” value at β-catenin (SW480 cells, 16 hours) is “could not be detected by anti-EA antibody”. In test [2], the “LEF-1, cyclin D1 and fibronectin mRNA expression” value is “decreased”. Also, the Fzd5 expression entry with Fzd5 mRNA was “dose-dependent enhancement”. For the same compound, in test [3], the induction of apoptosis result was “significant induction of apoptosis”. Besides, the half-maximal effective concentration (EC50) in the test with Primary CLL cells (read-out: CLL Inhibition EC50, CLL survival, MTT) turned out to be 9.9 µM.
